From ChEMBL document CHEMBL1201862, “PubChem BioAssay data set” (2004)
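Growth conditions: 96-well plates. Treatment: test compound, 48 hours, 5 concentrations. Analysis: linear interpolation between bracketing concentrations; unreached endpoints set to highest concentration. At the GI50, growth is halved.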 Calls of active or inactive are those of the source. No stated cut-off is given here; in the data, active = GI50 up to about 1.1 µM and inactive = higher.

How the values were obtained:
Test in all cases: NCI-60 cell line screen, 48 h
SK-MEL-5 = test system: SK-MEL-5
SW-620 = test system: SW-620
HL-60 = test system: HL-60
SF-539 = test system: SF-539
EKVX = test system: EKVX
MDA-N = test system: MDA-N
NCI-H23 = test system: NCI-H23
HCT-15 = test system: HCT-15
SF-295 = test system: SF-295
SNB-75 = test system: SNB-75
A549 = test system: A549
HCC 2998 = test system: HCC 2998
PC-3 = test system: PC-3
UACC-257 = test system: UACC-257
K562 = test system: K562
CAKI-1 = test system: CAKI-1
Malme-3M = test system: Malme-3M
SNB-19 = test system: SNB-19
SK-MEL-2 = test system: SK-MEL-2
CCRF-CEM = test system: CCRF-CEM
SK-OV-3 = test system: SK-OV-3
UO-31 = test system: UO-31
OVCAR-4 = test system: OVCAR-4
DU-145 = test system: DU-145
M14 = test system: M14
786-0 = test system: 786-0
RXF 393 = test system: RXF 393
MOLT-4 = test system: MOLT-4
OVCAR-5 = test system: OVCAR-5
SR = test system: SR
RPMI-8226 = test system: RPMI-8226
TK-10 = test system: TK-10
NCI-H226 = test system: NCI-H226
NCI/ADR-RES = test system: NCI/ADR-RES
HCT-116 = test system: HCT-116
MDA-MB-435 = test system: MDA-MB-435
LOX IMVI = test system: LOX IMVI
U-251 = test system: U-251
BT-549 = test system: BT-549
OVCAR-8 = test system: OVCAR-8
OVCAR-3 = test system: OVCAR-3
KM12 = test system: KM12
MDA-MB-231 = test system: MDA-MB-231
NCI-H522 = test system: NCI-H522
ACHN = test system: ACHN
UACC-62 = test system: UACC-62
MCF7 = test system: MCF7
IGROV-1 = test system: IGROV-1
A498 = test system: A498
NCI-H460 = test system: NCI-H460
COLO 205 = test system: COLO 205
HOP-92 = test system: HOP-92
SN12C = test system: SN12C

Measured: GI50

C=C1c2nc3ccccc3n2C=C(c2ccccc2)N1c1ccccc1
inactive: SK-MEL-5 17.1 µM | SW-620 40.3 µM | HL-60 58.7 µM | SF-539 43.6 µM | EKVX > 100 µM | MDA-N 39.8 µM | NCI-H23 33.7 µM | SF-295 32.1 µM | SNB-75 > 100 µM | A549 30.3 µM | HCC 2998 12.5 µM | PC-3 34.3 µM | UACC-257 74.1 µM | K562 34.5 µM | CAKI-1 81.7 µM | Malme-3M > 100 µM | SNB-19 40.4 µM | SK-MEL-2 73.5 µM | CCRF-CEM 53.3 µM | SK-OV-3 > 100 µM | UO-31 25.7 µM | OVCAR-4 16.4 µM | DU-145 > 100 µM | M14 67.9 µM | 786-0 > 100 µM | RXF 393 22.4 µM | MOLT-4 21.4 µM | OVCAR-5 > 100 µM | SR 21.7 µM | RPMI-8226 17.3 µM | TK-10 49 µM | NCI-H226 57.4 µM | NCI/ADR-RES 34 µM | HCT-116 13.5 µM | MDA-MB-435 40.5 µM | LOX IMVI 42.2 µM | U-251 58.6 µM | BT-549 24.5 µM | OVCAR-8 37.8 µM | OVCAR-3 > 100 µM | KM12 24.8 µM | MDA-MB-231 > 100 µM | NCI-H522 15.8 µM | ACHN 49.4 µM | UACC-62 43.1 µM | MCF7 14.6 µM | IGROV-1 > 100 µM | A498 65.3 µM | NCI-H460 27.5 µM | COLO 205 52.5 µM | HOP-92 50.4 µM | SN12C 92.5 µM
13.6 µM: HCT-15
